Results as given in US9545119B2, “Specific vanillyl lignans and use thereof as taste improvers” (SYMRISE AG, priority 2011, dated 2017).
Marks after values point to notes of the source that are not given here.

Experiments:
Format in all cases: in vivo
[1] = test system: caffeine solution containing 500 ppm; experiment: Bitterness reduction in a bitter substance solution (expert panel), caffeine; conditions: for Reduction in the bitterness impression: * = significant; for Bitterness impression (on scale of 1-10) b) with test substance: 25 ppm test substance + 500 ppm caffeine, scale 1 (not bitter) to 10 (extremely bitter), panel mean; for Effect on bitterness (in words): statement in the description referring to Example 1
Excerpt: (§1) In order to quantify a reduction in the bitterness impression in a sample, the bitterness of a caffeine solution containing 500 ppm was compared by a panel of experts, in each case with a sample containing 500 ppm caffeine and also the respectively given quantity of a substance to be assessed (with regard to the ability thereof to reduce bitterness), with assessment on a scale from 1 (not bitter) to 10 (extremely bitter). For the evaluation, i.e. the calculation of the reduction (in %) of the bitterness impression, in each case, the mean values of the estimates by the expert panel for the caffeine solution and the sample to be compared, which contained caffeine and a substance under assessment were used. In addition to caffeine, other bitter substances such as theobromine, naringin, quinine hydrochloride dihydrate and salicin were tested using the same method.

[2] = test system: 750 ppm epigallocatechin gallate (EGCG); experiment: Bitterness and astringency reduction in a bitter substance solution over time (expert panel); conditions: 100 ppm test substance + 750 ppm EGCG; time 0 s
300 ppm theobromine = experiment: Bitterness reduction in a bitter substance solution (expert panel), theobromine; conditions: for Reduction in the bitterness impression: 25 ppm test substance + 300 ppm theobromine vs theobromine alone; for Bitterness impression (on scale of 1-10) b) with test substance: 25 ppm test substance + 300 ppm theobromine, scale 1-10
Excerpt: as §1

[3] = test system: 750 ppm epigallocatechin gallate (EGCG); experiment: Bitterness and astringency reduction in a bitter substance solution over time (expert panel); conditions: 100 ppm test substance + 750 ppm EGCG
Excerpt: In order to quantify the reduction in the bitterness or astringency impression in a sample over a particular period of time, the bitterness or astringency of a solution containing 750 ppm epigallocatechin gallate (EGCG) was compared by a panel of experts, in each case with a sample containing 750 ppm epigallocatechin gallate and also the respectively shown quantity of a substance to be assessed (with regard to the ability thereof to reduce bitterness and/or astringency), in this case matairesinol (Compound 1-(−)).
Assessment was carried out on a scale from 1 (not bitter) to 10 (extremely bitter) or 1 (not astringent) to 10 (extremely astringent). The assessment by the panelists was carried out at specified time points (10 seconds, 30 seconds, 50 seconds and 70 seconds after ingestion of the respective sample). The samples were assessed by the panellists one after another following neutralisation. For the evaluation, i.e. the calculation of the reduction (in %) of the bitterness impression or astringency impression, at each time point, the mean values of the estimates by the expert panel for the epigallocatechin gallate solution and the sample to be compared therewith which contained the epigallocatechin gallate and the substance under assessment (in this case: matairesinol (Compound 1-(−)) were used.

100 ppm naringin = experiment: Bitterness reduction in a bitter substance solution (expert panel), naringin; conditions: for Reduction in the bitterness impression: 25 ppm test substance + 100 ppm naringin vs naringin alone, * = significant; for Bitterness impression (on scale of 1-10) b) with test substance: 25 ppm test substance + 100 ppm naringin, scale 1-10
Excerpt: as §1

250 ppm salicin = experiment: Bitterness reduction in a bitter substance solution (expert panel), salicin
Excerpt: as §1

[4] = test system: 5 ppm quinine hydrochloride dihydrate; experiment: Bitterness reduction in a bitter substance solution (expert panel), quinine hydrochloride dihydrate
Excerpt: as §1

[5] = 25 ppm test substance + 500 ppm caffeine vs 500 ppm caffeine alone

COc1cc(C[C@H]2C(=O)OC[C@@H]2Cc2ccc(OC)c(OC)c2)ccc1O [(−)-arctigenin (4), (3R,4R)-4-[(3,4-dimethoxyphenyl)methyl]-3-[(4-hydroxy-3-methoxy-phenyl)methyl]oxolan-2-one]
Reduction in the bitterness impression [1, 5]: 11.5% | Bitterness impression (on scale of 1-10) b) with test substance [1]: 2.8 ± 1.68

COc1cc(C[C@@H](CO)[C@H](CO)Cc2ccc(O)c(OC)c2)ccc1O [secoisolariciresinol, reference compound]
Amplification of the bitterness impression (printed in column Reduction in the bitterness impression) ([1]; 25 ppm test substance + 500 ppm caffeine vs 500 ppm caffeine alone, comparative example): 34% | Bitterness impression (on scale of 1-10) b) with test substance [1]: 5.2 ± 2.6 | Effect on bitterness (in words) [1]: amplifies the bitterness | Effect on bitterness (in words) ([1]; listed as Secoisolariciresinol): capable of amplifying bitter taste impressions

COc1cc(C2c3cc(O)c(OC)cc3CC(CO)C2CO)ccc1O (single isomer, unassigned; (+)) [(+)-isolariciresinol (5-(+)), 1,2,3,4-tetrahydro-7-hydroxy-1-(4-hydroxy-3-methoxy-phenyl)-6-methoxy-2,3-naphthalenedimethanol]
Reduction in the bitterness impression [1, 5]: 10.3% | Bitterness impression (on scale of 1-10) b) with test substance [1]: 4.1 ± 2.21

COc1cc(C[C@H]2C(=O)OC[C@@H]2[C@H](O)c2ccc(O)c(OC)c2)ccc1O [(−)-hydroxymatairesinol(2-(−)), (3R,4R)-4-[(S)-hydroxy-(4-hydroxy-3-methoxy-phenyl)methyl]-3-[(4-hydroxy-3-methoxyphenyl)methyl]oxolan-2-one]
Reduction in the bitterness impression [1, 5]: 41.9%* | Bitterness impression (on scale of 1-10) b) with test substance [1]: 2.6 ± 1.72

COc1cc(C[C@H]2COC(=O)[C@@H]2Cc2ccc(O)c(OC)c2)ccc1O [(−)-matairesinol (1-(−)), (3R,4R)-3,4-bis[(4-hydroxy-3-methoxyphenyl)methyl]oxolan-2-one]
% Reduction in the astringency impression [2]: −11% | % reduction in the bitterness impression [2]: −15% | Reduction in the bitterness impression (300 ppm theobromine): 24.7% | Bitterness impression (on scale of 1-10) b) with test substance (300 ppm theobromine): 3.4 ± 1.49 | % Reduction in the astringency impression ([3]; time 10 s): −10%* | % reduction in the bitterness impression ([3]; time 10 s): −30%* | % Reduction in the astringency impression ([3]; time 30 s): −15% | % reduction in the bitterness impression ([3]; time 30 s): −38%* | % Reduction in the astringency impression ([3]; time 50 s): −20% | % reduction in the bitterness impression ([3]; time 50 s): −33%* | % Reduction in the astringency impression ([3]; time 70 s): −23% | % reduction in the bitterness impression ([3]; time 70 s): −28% | Reduction in the bitterness impression [1, 5]: 35.5%* | Bitterness impression (on scale of 1-10) b) with test substance [1]: 2.7 ± 1.77 | Reduction in the bitterness impression (100 ppm naringin): 15.1% | Bitterness impression (on scale of 1-10) b) with test substance (100 ppm naringin): 4.9 ± 2.38

COc1cc([C@@H]2c3cc(O)c(OC)cc3C[C@H]3C(=O)OC[C@@H]23)ccc1O [(−)-α-conidendrin (6-(−)), (3aR,9R,9aS)-7-hydroxy-9-(4-hydroxy-3-methoxyphenyl)-6-methoxy-3a,4,9,9a-tetrahydro-1H-benzo[f][2]benzofuran-3-one]
Reduction in the bitterness impression [1, 5]: 20.8% | Bitterness impression (on scale of 1-10) b) with test substance [1]: 2.5 ± 0.94

COc1cc(C[C@H]2CO[C@H](c3ccc(O)c(OC)c3)[C@H]2CO)ccc1O [(+)-lariciresinol (3-(+)), 4-[[(3R,4R,5S)-5-(4-hydroxy-3-methoxyphenyl)-4-(hydroxy-methyl)-oxolan-3-yl]methyl]-2-methoxyphenol]
Reduction in the bitterness impression (300 ppm theobromine): 10.7% | Bitterness impression (on scale of 1-10) b) with test substance (300 ppm theobromine): 3.7 ± 2.24 | Reduction in the bitterness impression [1, 5]: 38.6%* | Bitterness impression (on scale of 1-10) b) with test substance [1]: 2.9 ± 1.41 | Reduction in the bitterness impression (250 ppm salicin; 25 ppm test substance + 250 ppm salicin vs salicin alone): 17.1% | Bitterness impression (on scale of 1-10) b) with test substance (250 ppm salicin; 25 ppm test substance + 250 ppm salicin, scale 1-10): 5.7 ± 2.97 | Reduction in the bitterness impression ([4]; 25 ppm test substance + 5 ppm quinine hydrochloride dihydrate vs quinine alone, * = significant): 30.9%* | Bitterness impression (on scale of 1-10) b) with test substance ([4]; 25 ppm test substance + 5 ppm quinine hydrochloride dihydrate, scale 1-10): 2.5 ± 1.02 | Reduction in the bitterness impression (100 ppm naringin): 39.5%* | Bitterness impression (on scale of 1-10) b) with test substance (100 ppm naringin): 3.6 ± 1.75
